For 17 molecules, IC50 results are on record in US20110263610A1, “COMPOUNDS AND COMPOSITIONS AS ITPKB INHIBITORS” (IRM LLC, priority 2008, published 2011).

One test has as its target T1, ITPKb (Mus musculus, UniProt B2RXC2).
T1 construct: murine ITPKb residues 640-942; MGSDKIHHHHHH (His6 tag from MH4 plasmid) (N); made in house; host or cells: Escherichia coli HK100
T1 sequence (B2RXC2 640-942): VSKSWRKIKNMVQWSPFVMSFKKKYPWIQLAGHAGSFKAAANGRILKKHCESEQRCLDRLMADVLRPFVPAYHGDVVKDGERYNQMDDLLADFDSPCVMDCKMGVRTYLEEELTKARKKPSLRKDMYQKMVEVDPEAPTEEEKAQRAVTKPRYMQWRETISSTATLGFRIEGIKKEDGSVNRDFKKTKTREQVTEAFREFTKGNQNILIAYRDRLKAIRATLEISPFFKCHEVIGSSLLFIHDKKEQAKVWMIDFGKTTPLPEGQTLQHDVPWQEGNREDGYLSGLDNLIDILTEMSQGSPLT
The test can be described thus: Biochemical measurement of ITPKb activity (Kinase-Glo ATP depletion assay); inhibiting the phosphorylation of IP3 to IP4. On the set-up: species or system murine. To be noted: Table 1; inhibiting the phosphorylation of IP3 to IP4; read-out: IC50. How it is done:
Compounds of the present invention are assayed to measure their capacity to inhibit ITPKb according to the following assays.
The DNA sequence encoding murine ITPKb residues 640-942 is amplified from a full-length construct in mammalian expression vector pKDNZ by PCR. The 3′-primer incorporates a stop codon and an overhanging PacI site. The product is digested with Pad before being ligated into the MH4 plasmid which has been prepared by digestion with PmlI and PacI. Cloning into the MH4 plasmid adds the sequence MGSDKIHHHHHH to the N-terminus of the translated region. Mutant enzymes are made by site-directed mutagenesis using the Stratagene Quikchange kit.
ITPKb is expressed in the HK100 strain of Escherichia coli. Typically, a 4 L batch of cells is grown in LB with […] ampicillin to 0.5 A600 at 30 degrees C., before induction with 0.02% L-arabinose for 6 hours. Cells are harvested by centrifugation, and pellets are resuspended in 50 mL of 50 mM Tris (pH 8), 100 mM NaCl, 1 mM TCEP, and 0.1 mg/mL lysozyme, with 1 Complete protease inhibitor tablet (Roche). Cells are disrupted by sonication, and debris is removed by centrifugation for 40 minutes at 35000 g.
Initial purification is performed using three nickel-Sepharose Hi-Trap HP 1 mL columns (Amersham) connected in series. After application of the pellet supernatants, the bound material is washed with 20 mM Tris (pH 8.0), 20 mM imidazole, 10% glycerol (v/v), and 1 mM TCEP before elution with an imidazole gradient up to 200 mM.
Fractions containing ITPKb are identified by SDS-PAGE, and the pure fractions are concentrated and buffer exchanged using centriprep 20 15 kDa columns into 20 mM Tris (pH 8), 200 mM KCl, 5 mM MgCl2, 0.5 mM DTT, 10% glycerol, 1 μM IP3, and 20 μM ATP to a final protein concentration of 7 mg/mL.
ITPKb activity is determined using the Kinase-Glo (Promega) ATP depletion assay. The assay reaction buffer consists of 50 mM Tris (pH 8.0), 100 mM NaCl, 1 mM DTT, 10% glycerol, 5 mM MgCl2, 1 μM ATP, and 10 μM IP3 (Alexis Biochemicals). 50 nl of inhibitor is then added to each 40 μL reaction followed by a 10 μL addition of purified ITPKb (final concentration of 60 nM). The reaction mixture is incubated for 60 minutes at room temperature and stopped by the addition of an equal volume of kinase-glo reagent (Promega). Luminescence is measured using a Molecular Devices Acquest instrument.
For orientation: Kinase-Glo reads ATP consumption through a luciferase reaction.
Regarding `NC(=O)c1c[nH]c(-c2n[nH]cc2CN2CCN(c3ccc(C(F)(F)F)cn3)[C@H](C(F)(F)F)C2)c1` [Example 51], the IC50 turned out to be 2 nM.
Turning to `FC(F)(F)c1ccc(N2CCN(Cc3c[nH]nc3-c3cccs3)CC2)nc1` [Example 22], the IC50 came out at 4320 nM.
On the same count and under the same terms, then `C[C@@H]1CN(Cc2c[nH]nc2-c2ccc3cnccc3c2)CCN1c1ccc(C(F)(F)F)cn1` [Example 20], with 11 nM.
As for `C[C@@H]1CN(Cc2c[nH]nc2-c2ccc(C(=O)O)o2)CCN1c1ccc(C(F)(F)F)cn1` [Example 38], the half-maximal inhibitory concentration (IC50) came out at 435 nM.
The same measure, in the same setting: as for `C[C@@H]1CN(Cc2c[nH]nc2-c2cc(C(=O)N(C)C)c[nH]2)CCN1c1ccc(C(F)(F)F)cn1` [Example 41], the figure is 85 nM.
`C[C@@H]1CN(Cc2c[nH]nc2C2=CCN(C(=O)CCO)CC2)CCN1c1ccc(C(F)(F)F)cn1` [Example 54]: the half-inhibitory concentration (IC50) is 80 nM.
Still for that read-out and setting: then `C[C@@H]1CN(Cc2c[nH]nc2-c2ccnc3[nH]ccc23)CCN1c1ccc(C(F)(F)F)cn1` [Example 40], with 478 nM.
On the same count and under the same terms, then `N#Cc1c[nH]c(-c2n[nH]cc2CN2CCN(c3ccc(C(F)(F)F)cn3)[C@H](C(F)(F)F)C2)c1` [Example 29], with 9 nM; and `C[C@@H]1CN(Cc2c[nH]nc2C(=O)Nc2nc[nH]c2C#N)CCN1c1ccc(C(F)(F)F)cn1` [Example 30], with more than 10000 nM.
Still for that read-out and setting: as for `C[C@@H]1CN(Cc2c[nH]nc2-c2cc(C(=O)O)co2)CCN1c1ccc(C(F)(F)F)cn1` [Example 52], the figure is 1040 nM.

The test is the same for the next values; noted with them: Table 2; inhibiting the phosphorylation of IP3 to IP4; read-out: IC50.
As to `C[C@@H]1CN(Cc2c[nH]nc2-c2nc(-c3ccccc3)c[nH]2)CCN1c1ccc(C(F)(F)F)cn1` [Example 15, (R)-2-methyl-4-((3-(4-phenyl-1H-imidazol-2-yl)-1H-pyrazol-4-yl)methyl)-1-(5-(trifluoromethyl)pyridin-2-yl)piperazine], the IC50 is 1230 nM.
On the same count and under the same terms, then `C[C@@H]1CN(Cc2c[nH]nc2C2=CCN(C=O)CC2)CCN1c1ccc(C(F)(F)F)cn1` [Example 10, (R)-4-(4-((3-methyl-4-(5-(trifluoromethyl)pyridin-2-yl)piperazin-1-yl)methyl)-1H-pyrazol-3-yl)-5,6-dihydropyridine-1(2H)-carbaldehyde], with 10 nM; and `C[C@@H]1CN(Cc2c[nH]nc2-c2nc(C(N)=O)c[nH]2)CCN1c1ccc(C(F)(F)F)cn1` [Example 14, (R)-2-(4-((3-methyl-4-(5-(trifluoromethyl)pyridin-2-yl)piperazin-1-yl)methyl)-1H-pyrazol-3-yl)-1H-imidazole-4-carboxamide], with 24 nM.
The same measure, in the same setting: then `C[C@@H]1CN(Cc2c[nH]nc2-c2nc(C#N)c[nH]2)CCN1c1ccc(C(F)(F)F)cn1` [Example 13, (R)-2-(4-((3-methyl-4-(5-(trifluoromethyl)pyridin-2-yl)piperazin-1-yl)methyl)-1H-pyrazol-3-yl)-1H-imidazole-4-carbonitrile], with 102 nM; and `C[C@@H]1CN(Cc2c[nH]nc2C2=CCNCC2)CCN1c1ccc(C(F)(F)F)cn1` [Example 9, (R)-2-methyl-4-((3-(1,2,3,6-tetrahydropyridin-4-yl)-1H-pyrazol-4-yl)methyl)-1-(5-(trifluoromethyl)pyridin-2-yl)piperazine], with 278 nM; and `C[C@@H]1CN(Cc2n[nH]nc2-c2ccc(C#N)cc2)CCN1c1ccc(C(F)(F)F)cc1` [Example 19, (R)-4-(5-((3-methyl-4-(4-(trifluoromethyl)phenyl)piperazin-1-yl)methyl)-2H-1,2,3-triazol-4-yl)benzonitrile], with 40 nM.

The same test, now with this note: read-out: IC50 in inhibiting the phosphorylation of IP3 to IP4.
In the case of `C[C@@H]1CN(Cc2c[nH]nc2-c2cc(C(N)=O)c[nH]2)CCN1c1ccc(C(F)(F)F)cn1` [Example 2, (R)-5-(4-((3-methyl-4-(5-(trifluoromethyl)pyridin-2-yl)piperazin-1-yl)methyl)-1H-pyrazol-3-yl)-1H-pyrrole-3-carboxamide], the IC50 turned out to be 3 nM.

By IC50 is commonly meant the point on the concentration scale where inhibition reaches its midpoint.
